Paper doi:10.1101/2021.01.25.428124v1 (biorxiv, 2021)

Biological target: Methyl-coenzyme M reductase (MCR-I), Ni(I)-MCRred1 (Methanothermobacter marburgensis, UniProt P11558+P11560+P11562)
Test: biochemical
Assay type: binding

Methyl-coenzyme M reductase (MCR-I), Ni(I)-MCRred1, sequence (P11558 2-550 limits assumed): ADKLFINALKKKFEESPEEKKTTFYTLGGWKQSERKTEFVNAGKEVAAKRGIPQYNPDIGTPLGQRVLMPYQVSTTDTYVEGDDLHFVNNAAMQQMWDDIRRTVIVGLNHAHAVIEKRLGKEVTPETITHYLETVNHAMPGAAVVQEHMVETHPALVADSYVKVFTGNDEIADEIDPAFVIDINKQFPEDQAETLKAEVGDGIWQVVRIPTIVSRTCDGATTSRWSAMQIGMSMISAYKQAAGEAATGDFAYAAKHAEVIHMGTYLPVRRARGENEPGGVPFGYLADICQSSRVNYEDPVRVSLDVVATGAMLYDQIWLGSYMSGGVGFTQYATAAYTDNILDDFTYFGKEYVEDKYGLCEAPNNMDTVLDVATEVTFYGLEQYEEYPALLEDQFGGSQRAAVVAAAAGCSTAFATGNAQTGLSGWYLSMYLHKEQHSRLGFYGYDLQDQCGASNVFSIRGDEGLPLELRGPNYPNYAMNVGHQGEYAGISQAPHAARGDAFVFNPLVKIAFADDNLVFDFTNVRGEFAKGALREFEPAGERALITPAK
Methyl-coenzyme M reductase (MCR-I), Ni(I)-MCRred1, sequence (P11560 2-443 limits assumed): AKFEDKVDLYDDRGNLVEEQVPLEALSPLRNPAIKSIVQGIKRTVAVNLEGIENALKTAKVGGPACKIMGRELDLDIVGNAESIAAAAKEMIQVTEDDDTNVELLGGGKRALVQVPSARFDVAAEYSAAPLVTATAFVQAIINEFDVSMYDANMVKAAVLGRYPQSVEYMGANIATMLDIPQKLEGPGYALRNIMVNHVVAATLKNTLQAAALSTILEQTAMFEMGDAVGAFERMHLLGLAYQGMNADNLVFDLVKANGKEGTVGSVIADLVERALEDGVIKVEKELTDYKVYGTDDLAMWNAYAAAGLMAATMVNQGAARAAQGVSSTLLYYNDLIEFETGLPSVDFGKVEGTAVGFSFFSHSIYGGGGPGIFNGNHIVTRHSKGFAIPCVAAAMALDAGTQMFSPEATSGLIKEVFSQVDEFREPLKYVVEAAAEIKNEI
Methyl-coenzyme M reductase (MCR-I), Ni(I)-MCRred1, sequence (P11562 2-249 limits assumed): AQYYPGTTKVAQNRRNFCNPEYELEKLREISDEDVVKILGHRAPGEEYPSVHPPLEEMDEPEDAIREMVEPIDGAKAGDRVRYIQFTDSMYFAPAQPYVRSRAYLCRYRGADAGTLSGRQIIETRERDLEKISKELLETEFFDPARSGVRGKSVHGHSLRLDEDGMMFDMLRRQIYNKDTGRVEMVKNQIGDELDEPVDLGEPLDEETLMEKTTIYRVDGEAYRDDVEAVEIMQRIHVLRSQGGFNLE

| SMILES | Kd [µM] |
| --- | --- |
| C[C@@H](OP(=O)(O)O)[C@H](NC(=O)CCCCCCSSCCS(=O)(=O)O)C(=O)O [CoMSSCoB] | 57.4 ± 5.4 |
| CSCCS(=O)(=O)O [methyl-SCoM, S-methyl-2-mercaptoethane sulfonate] | 27.5 ± 7.3 |
| CCCCS(=O)(=O)O [But-SO3] | 3300 ± 600 |
| C[C@@H](OP(=O)(O)O)[C@H](NC(=O)CCCCCSSCCS(=O)(=O)O)C(=O)O [CoMSSCoB6] | 105 ± 10.9 |
